In PubChem BioAssay (NCI):
Where “and” joins values, the source holds several entries; their conditions need not be identical. Identical values can stand only once.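 Values below derive from 48-hour exposures of cells grown in 96-well plates, with endpoints linearly interpolated between the two concentrations bracketing the appropriate inhibition level. GI50 marks 50% less growth. At the TGI there is no net growth.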

Key:
Assay in all cases: growth of human tumour cells (NCI), 48 h
HT29 colon = tested on: HT29 colon
SK-MEL-28 melanoma = tested on: SK-MEL-28 melanoma
OVCAR-5 ovarian = tested on: OVCAR-5 ovarian
M14 melanoma = tested on: M14 melanoma
SK-MEL-5 melanoma = tested on: SK-MEL-5 melanoma
SK-OV-3 ovarian = tested on: SK-OV-3 ovarian
MALME-3M melanoma = tested on: MALME-3M melanoma
COLO 205 colon = tested on: COLO 205 colon
MCF7 breast = tested on: MCF7 breast
RXF 393 renal = tested on: RXF 393 renal
BT-549 breast = tested on: BT-549 breast
SF-268 CNS = tested on: SF-268 CNS
T-47D breast = tested on: T-47D breast
SN12C renal = tested on: SN12C renal
NCI/ADR-RES ovarian = tested on: NCI/ADR-RES ovarian
DU-145 prostate = tested on: DU-145 prostate
786-0 renal = tested on: 786-0 renal
TK-10 renal = tested on: TK-10 renal
NCI-H226 lung = tested on: NCI-H226 lung
SNB-19 CNS = tested on: SNB-19 CNS
LXFL 529 NSCLC = tested on: LXFL 529 NSCLC
LOX IMVI melanoma = tested on: LOX IMVI melanoma
U251 CNS = tested on: U251 CNS
OVCAR-3 ovarian = tested on: OVCAR-3 ovarian
EKVX NSCLC = tested on: EKVX NSCLC
OVCAR-4 ovarian = tested on: OVCAR-4 ovarian
MDA-MB-435 = tested on: MDA-MB-435
HCT-15 colon = tested on: HCT-15 colon
SF-295 CNS = tested on: SF-295 CNS
DMS 114 small cell lung = tested on: DMS 114 small cell lung
M19-MEL melanoma = tested on: M19-MEL melanoma
SW-620 colon = tested on: SW-620 colon
HCC-2998 colon = tested on: HCC-2998 colon
MOLT-4 leukemia = tested on: MOLT-4 leukemia
HCT-116 colon = tested on: HCT-116 colon
HOP-62 NSCLC = tested on: HOP-62 NSCLC
NCI-H23 lung = tested on: NCI-H23 lung
HL-60(TB) leukemia = tested on: HL-60(TB) leukemia
MDA-N = tested on: MDA-N
HS 578T breast = tested on: HS 578T breast
MDA-MB-231 breast = tested on: MDA-MB-231 breast
NCI-H522 lung = tested on: NCI-H522 lung
DMS 273 small cell lung = tested on: DMS 273 small cell lung
ACHN renal = tested on: ACHN renal
CCRF-CEM leukemia = tested on: CCRF-CEM leukemia
SNB-75 CNS = tested on: SNB-75 CNS
NCI-H460 lung = tested on: NCI-H460 lung
IGROV1 ovarian = tested on: IGROV1 ovarian
SNB-78 CNS = tested on: SNB-78 CNS
K-562 leukemia = tested on: K-562 leukemia
DLD-1 colon = tested on: DLD-1 colon
UACC-62 melanoma = tested on: UACC-62 melanoma
KM12 colon = tested on: KM12 colon

## COc1cccc2c1C(CO)N1C(C#N)C3CC(C(=O)O)C(C1C2)N3C (stereo unspecified)
HT29 colon
  TGI: 6.55 µM
SK-MEL-28 melanoma
  GI50: 0.391 µM
  TGI: 3.83 µM and 1.88 µM
OVCAR-5 ovarian
  GI50: 0.183 µM
M14 melanoma
  GI50: 0.363 µM
  TGI: 6.91 µM and 1.42 µM
SK-MEL-5 melanoma
  GI50: 0.383 µM
  TGI: 4.07 µM and 0.985 µM
SK-OV-3 ovarian
  GI50: 2.6 µM
  TGI: 8.34 µM and > 31.1 µM
MALME-3M melanoma
  GI50: 0.458 µM
  TGI: 4.6 µM and 1.23 µM
COLO 205 colon
  GI50: 0.112 µM
  TGI: 2.66 µM and 1.2 µM
MCF7 breast
  TGI: > 44 µM
RXF 393 renal
  GI50: 0.203 µM
  TGI: 1.85 µM and 0.571 µM
BT-549 breast
  TGI: 0.739 µM and 1.94 µM
SF-268 CNS
  GI50: 0.313 µM
  TGI: 8.75 µM and 57.3 µM
T-47D breast
  GI50: 0.135 µM
SN12C renal
  GI50: 0.373 µM
  TGI: 8.34 µM and > 17.8 µM
NCI/ADR-RES ovarian
  GI50: 0.194 µM
  TGI: 0.549 µM and 1.12 µM
DU-145 prostate
  GI50: 0.365 µM
  TGI: > 100 µM
786-0 renal
  GI50: 0.236 µM
  TGI: 3.8 µM and 0.757 µM
TK-10 renal
  TGI: 9.27 µM
NCI-H226 lung
  GI50: 2.47 µM and 0.327 µM
  TGI: 5.38 µM and 1.23 µM
SNB-19 CNS
  GI50: 0.212 µM
  TGI: > 15.5 µM
LXFL 529 NSCLC
  TGI: 6.67 µM
LOX IMVI melanoma
  GI50: 0.254 µM
U251 CNS
  GI50: 0.0787 µM
OVCAR-3 ovarian
  GI50: 0.305 µM
EKVX NSCLC
  GI50: 0.734 µM
  TGI: 10.6 µM
OVCAR-4 ovarian
  GI50: 0.705 µM
  TGI: 27 µM
MDA-MB-435
  GI50: 0.168 µM
HCT-15 colon
  GI50: 0.38 µM
SF-295 CNS
  GI50: 0.42 µM
  TGI: 27.2 µM
DMS 114 small cell lung
  GI50: 0.159 µM
M19-MEL melanoma
  GI50: 0.256 µM
SW-620 colon
  GI50: 0.467 µM
HCC-2998 colon
  GI50: 3.14 µM
  TGI: 8.21 µM and 2.78 µM
MOLT-4 leukemia
  GI50: 0.0934 µM
HCT-116 colon
  GI50: 0.337 µM
  TGI: 5.59 µM
HOP-62 NSCLC
  TGI: 8.15 µM and 3.73 µM
NCI-H23 lung
  GI50: 0.222 µM
  TGI: 4.42 µM and 0.558 µM
HL-60(TB) leukemia
  GI50: 0.239 µM
  TGI: 4.53 µM and 0.811 µM
MDA-N
  TGI: 0.635 µM and 2.25 µM
HS 578T breast
  GI50: 0.538 µM
  TGI: 3.08 µM
MDA-MB-231 breast
  GI50: 0.271 µM
  TGI: 0.933 µM and 0.521 µM
NCI-H522 lung
  GI50: 0.238 µM
  TGI: 0.874 µM and 0.389 µM
DMS 273 small cell lung
  GI50: 0.335 µM
  TGI: 8.25 µM
ACHN renal
  GI50: 0.294 µM
CCRF-CEM leukemia
  GI50: 0.0877 µM
  TGI: 8.55 µM and > 17 µM
SNB-75 CNS
  GI50: 0.298 µM
  TGI: 5.42 µM and 1.99 µM
NCI-H460 lung
  GI50: 1.24 µM
IGROV1 ovarian
  TGI: 9.67 µM and 4.64 µM
SNB-78 CNS
  GI50: 0.334 µM
  TGI: 7.97 µM and 12 µM
K-562 leukemia
  GI50: 0.275 µM
  TGI: > 100 µM
DLD-1 colon
  TGI: 9.07 µM
UACC-62 melanoma
  GI50: 0.192 µM
  TGI: 2.23 µM and 0.452 µM
KM12 colon
  GI50: 0.679 µM
  TGI: 8.3 µM and > 26 µM

## CCCCCCCCCCCCCCCCCCOP(=O)([O-])OC1CC[N+](C)(C)CC1
HT29 colon
  GI50: 3.04 µM
  TGI: > 10 µM and 14.4 µM
SK-MEL-28 melanoma
  GI50: > 10 µM
  TGI: > 10 µM and 34.4 µM
OVCAR-5 ovarian
  GI50: 2.25 µM
  TGI: > 10 µM and 8.82 µM
M14 melanoma
  GI50: 1.87 µM
  TGI: 4.41 µM and 12.7 µM
SK-MEL-5 melanoma
  TGI: 29.7 µM
SK-OV-3 ovarian
  TGI: > 10 µM and 19.1 µM
MALME-3M melanoma
  GI50: > 10 µM
  TGI: > 10 µM and 26.8 µM
COLO 205 colon
  GI50: 1.42 µM
  TGI: 9.43 µM and 15.8 µM
MCF7 breast
  GI50: > 10 µM
  TGI: > 10 µM and 34 µM
RXF 393 renal
  TGI: 5.55 µM and 8.04 µM
BT-549 breast
  GI50: 5.76 µM
  TGI: > 10 µM and 27.5 µM
SF-268 CNS
  GI50: 4.42 µM
  TGI: > 10 µM and 24.6 µM
T-47D breast
  GI50: 5.08 µM
  TGI: > 10 µM and 36.9 µM
SN12C renal
  GI50: 3.87 µM
  TGI: > 10 µM and 15.7 µM
NCI/ADR-RES ovarian
  GI50: > 10 µM
  TGI: > 10 µM and 28 µM
DU-145 prostate
  GI50: > 10 µM
  TGI: > 10 µM and 38.5 µM
786-0 renal
  GI50: 2.18 µM
  TGI: 5.95 µM and 8.32 µM
TK-10 renal
  GI50: 0.535 µM
  TGI: 1.89 µM and 5.34 µM
NCI-H226 lung
  GI50: > 10 µM
  TGI: > 10 µM and 27.1 µM
SNB-19 CNS
  GI50: 5.02 µM
  TGI: > 10 µM and 23.2 µM
LXFL 529 NSCLC
  TGI: 16.5 µM
LOX IMVI melanoma
  GI50: 3.89 µM
  TGI: > 10 µM and 22 µM
U251 CNS
  GI50: 4.02 µM
  TGI: > 10 µM and 26.1 µM
OVCAR-3 ovarian
  GI50: > 10 µM
  TGI: > 10 µM and 23 µM
EKVX NSCLC
  GI50: > 10 µM
  TGI: > 10 µM and 26.8 µM
OVCAR-4 ovarian
  TGI: > 10 µM and 23.5 µM
MDA-MB-435
  GI50: 5.91 µM
  TGI: > 10 µM and 30.3 µM
HCT-15 colon
  TGI: 9.86 µM and 8.72 µM
SF-295 CNS
  GI50: 3.63 µM
  TGI: > 10 µM and 18.2 µM
DMS 114 small cell lung
  TGI: 26.5 µM
M19-MEL melanoma
  TGI: 14.8 µM
SW-620 colon
  TGI: > 10 µM and 22.4 µM
HCC-2998 colon
  TGI: 17.3 µM
MOLT-4 leukemia
  GI50: 2.15 µM
  TGI: 5.57 µM and 11.3 µM
HCT-116 colon
  GI50: 5.24 µM
  TGI: > 10 µM and 20.6 µM
HOP-62 NSCLC
  GI50: 3.2 µM
  TGI: > 10 µM and 20.7 µM
NCI-H23 lung
  GI50: > 10 µM
  TGI: > 10 µM and 28.5 µM
HL-60(TB) leukemia
  GI50: > 10 µM
  TGI: > 10 µM and 6.98 µM
MDA-N
  TGI: 26.5 µM
HS 578T breast
  GI50: > 10 µM
  TGI: > 10 µM and 27.5 µM
MDA-MB-231 breast
  GI50: 4.81 µM
  TGI: > 10 µM and 20.8 µM
NCI-H522 lung
  GI50: 1.89 µM
  TGI: 5.64 µM and 12.2 µM
DMS 273 small cell lung
  TGI: 14.9 µM
ACHN renal
  GI50: 6.37 µM
  TGI: > 10 µM and 25.8 µM
CCRF-CEM leukemia
  GI50: 2.73 µM
  TGI: 7.55 µM and 10.5 µM
SNB-75 CNS
  GI50: > 10 µM
  TGI: > 10 µM and 20 µM
NCI-H460 lung
  GI50: 2.85 µM
  TGI: > 10 µM and 7.65 µM
IGROV1 ovarian
  GI50: 1.3 µM
  TGI: 4.29 µM and 10.8 µM
SNB-78 CNS
  TGI: 46.2 µM
K-562 leukemia
  GI50: 3.63 µM
  TGI: > 10 µM and 39 µM
DLD-1 colon
  TGI: 22.4 µM
UACC-62 melanoma
  GI50: 1.17 µM
  TGI: > 10 µM and 22.5 µM
KM12 colon
  GI50: 1.15 µM
  TGI: 2.97 µM and 1.46 µM
